Measurements from patent publication US20130202653A1, “3-ARYL-3-HYDROXY-2-AMINO-PROPIONIC ACID AMIDES, 3-HETEROARYL-3-HYDROXY-2-AMINOPROPIONIC ACID AMIDES AND RELATED COMPOUNDS HAVING ANALGESIC AND/OR IMMUNO STIMULANT ACTIVITY” (Allergan, Inc., priority 2005, published 2013).
Where a name gives a salt, the structure may show the parent alone. Read-outs that look alike come from different tables or passages of the source.

System: tactile allodynia in the rat Chung model
Test: Chung model: reversal of tactile allodynia (von Frey hairs) after spinal nerve ligation
Assay type: in vivo
Conditions: Rattus norvegicus, read-out: Peak % Pain reversal: time post dose
Text: An art-accepted model or assay for measuring an analgesic effect of a compound in chronic pain (in particular peripheral neuropathy) is the model known as Kim and Chung 1992, Pain […], pp 355-363 (Chung model). This model involves the surgical ligation of the L5 (and optionally the L6) spinal nerves on one side in experimental animals. Rats recovering from the surgery gain weight and display a level of general activity similar to that of normal rats. However, these rats develop abnormalities of the foot, wherein the hindpaw is moderately everted and the toes are held together. More importantly, the hindpaw on the side affected by the surgery appears to become sensitive to low-threshold mechanical stimuli and will perceive pain instead of the faint sensation of touch. This sensitivity to normally non-painful touch, called “tactile allodynia”, develops within the first week after surgery and lasts for at least two months. The allodynia response includes lifting the affected hindpaw to escape from the stimulus, licking the paw and holding it in the air for many seconds. None of these responses is normally seen in the control group.
To produce the tactile allodynia, rats are anesthetized before surgery. The surgical site is shaved and prepared either with betadine or Novacaine. Incision is made from the thoracic vertebra X111 down toward the sacrum. Muscle tissue is separated from the spinal vertebra (left side) at the L4-S2 levels. The L6 vertebra is located and the transverse process is carefully removed with a small rongeur to expose the L4-L6 spinal nerves. The L5 and L6 spinal nerves are isolated and tightly ligated with 6-0 silk thread. The same procedure is done on the right side as a control, except no ligation of the spinal nerves is performed.
After a complete hemostasis is confirmed, the wounds are sutured. A small amount of antibiotic ointment is applied to the incised area, and the rat is transferred to the recovery plastic cage under a regulated heat-temperature lamp.
On the day of the experiment, at least seven days after the surgery, typically six rats per test group are administered the test drugs by intraperitoneal (i.p.) injection or oral gavage (p.o.). For i.p. administration, the compounds are formulated in H2O and given in a volume of 1 ml/kg body weight by injecting into the intraperitoneal cavity. For p.o. administration, the compounds are formulated in H2O and given in a volume of 1 ml/kg body weight using an 18-gauge, 3 inch gavage needle that is slowly inserted through the esophagus into the stomach.
Tactile allodynia is assessed via von Frey hairs, which are a series of fine hairs with incremental differences in stiffness. Rats are placed in a plastic cage with a wire mesh bottom and allowed to acclimate for approximately 30 minutes. To establish the pre-drug baseline, the von Frey hairs are applied perpendicularly through the mesh to the mid-plantar region of the rats' hindpaw with sufficient force to cause slight buckling and held for 6-8 seconds. The applied force has been calculated to range from 0.41 to 15.1 grams. If the paw is sharply withdrawn, it is considered a positive response. A normal animal will not respond to stimuli in this range, but a surgically ligated paw will be withdrawn in response to a 1-2 gram hair. The 50% paw withdrawal threshold is determined using the method of Dixon, W. J., Ann. Rev. Pharmacol. Toxicol. 20:441-462 (1980) hereby incorporated by reference. Tactile allodynia is measured prior to and 15, 30, and 60 minutes after drug administration. The post-drug threshold is compared to the pre-drug threshold and the percent reversal of tactile sensitivity is calculated based on a normal threshold of 15.1 grams.
Table 1 below indicates the degree of pain reversal obtained in the Chung model with exemplary compounds of the invention. […]

[1] = ip, 1 h, 300 μg/kg IP, peak at 60 min post dose
[2] = ip, 0.5 h, 300 μg/kg IP, peak at 30 min post dose

Row | Structure (SMILES) | inhibition in vivo at 0.3 mg/kg [1] | further results
1 | N[C@@H](C(=O)N1CCCC1)[C@@H](O)c1cccnc1 (racemic) [Compound 20, DL-threo-2-Amino-3-hydroxy-3-(pyridin-3-yl)-1-(pyrrolidin-1-yl)propan-1-one dihydrochloride] |  | inhibition in vivo at 0.03 mg/kg (ip, 1 h, 30 μg/kg IP, peak at 60 min post dose): 92%
2 | N[C@@H](C(=O)N1CCCC1)[C@@H](O)c1ccsc1 (racemic) [Compound 23, DL-threo-2-Amino-3-hydroxy-1-(pyrrolidin-1-yl)-3-(thiophen-3-yl)propan-1-one hydrochloride] |  | inhibition in vivo at 0.03 mg/kg (po, 1 h, 30 μg/kg PO, peak at 60 min post dose): 100%
3 | N[C@@H](C(=O)N1CCCC1)[C@@H](O)c1cccs1 (racemic) [Compound 24, DL-threo-2-Amino-3-hydroxy-1-(pyrrolidin-1-yl)-3-(thiophen-2-yl)propan-1-one hydrochloride] | 60% | 
4 | N[C@@H](C(=O)N1CCCC1)[C@@H](O)c1csc2ccccc12 (racemic) [Compound 26, hydrochloride] | 92% | 
5 | N[C@@H](C(=O)N1CCCC1)[C@@H](O)c1ccoc1 (racemic) [Compound 27, DL-threo-2-Amino-3-(furan-3-yl)-3-hydroxy-1-(pyrrolidin-1-yl)propan-1-one hydrochloride] |  | inhibition in vivo at 0.3 mg/kg [2]: 42%
6 | N[C@@H](C(=O)N1CCCC1)[C@@H](O)c1ccc2ccccc2c1 (racemic) [Compound 28, DL-threo-2-Amino-3-hydroxy-3-(naphthalen-2-yl)-1-(pyrrolidin-1-yl)propan-1-one hydrochloride] | 92% | 
7 | N[C@@H](C(=O)N1CCCC1)[C@@H](O)c1cccc2ccccc12 (racemic) [Compound 29, DL-threo-2-Amino-3-hydroxy-3-(naphthalen-1-yl)-1-(pyrrolidin-1-yl)propan-1-one hydrochloride] | 47% | 
8 | N[C@@H](C(=O)N1CCCC1)[C@@H](O)c1ccc2ccccc2n1 (racemic) [Compound 30, DL-threo-2-Amino-3-hydroxy-1-(pyrrolidin-1-yl)-3-(quinolin-2-yl)propan-1-one dihydrochloride] | 53% | 
9 | N[C@@H](C(=O)N1CC=CC1)[C@@H](O)c1ccnc(Cl)c1 (racemic) [Compound 34, DL-threo-2-Amino-3-(2-chloropyridin-4-yl)-3-hydroxy-1-(2H-pyrrol-1 (5H)-yl)propan-1-one dihydrochloride] | 62% | 
10 | N[C@@H](C(=O)N1CCCCC1)[C@@H](O)c1ccncc1 (racemic) [Compound 35, DL-threo-2-Amino-3-hydroxy-3-(pyridin-4-yl)-1-(piperidin-1-yl)propan-1-one dihydrochloride] | 92% | 
11 | CCN(CC)C(=O)[C@H](N)[C@@H](O)c1ccncc1 (racemic) [Compound 40, DL-threo-2-Amino-N,N-diethyl-3-hydroxy-3-(pyridin-4-yl)propanamide dihydrochloride] | 47% | 
12 | N[C@@H](C(=O)N1CCCC1)[C@@H](O)c1ccnc(Cl)c1 (racemic) [Compound 41, DL-threo-2-Amino-3-(2-chloropyridin-4-yl)-3-hydroxy-1-(pyrrolidin-1-yl)propan-1-one dihydrochloride] | 70% | 
13 | N[C@@H](C(=O)N1CCCC1)[C@@H](O)c1ccncc1Cl (racemic) [Compound 43, DL-threo-2-Amino-3-(3-chloropyridin-4-yl)-3-hydroxy-1-(pyrrolidin-1-yl)propan-1-one dihydrochloride] | 96% | 
14 | N[C@@H](C(=O)N1CCCC1)[C@@H](O)c1ccc[nH]c1=O (racemic) [Compound 49, 3-(DL-threo-2-Amino-1-hydroxy-3-oxo-3-pyrrolidin-1-yl-propyl)-1H-pyridin-2-one hydrochloride] |  | inhibition in vivo at 0.1 mg/kg (ip, 1 h, 100 μg/kg IP, peak at 60 min post dose): 85%
15 | O=C(N[C@@H](C(=O)N1CCCC1)[C@@H](O)c1ccncc1)c1ccccc1 (racemic) [Compound 55, N-(DL-threo-1-Hydroxy-3-oxo-1-(pyridin-4-yl)-3-(pyrrolidin-1-yl)propan-2-yl)benzamide hydrochloride] | 58% | 
16 | COc1ccc(C(=O)N[C@@H](C(=O)N2CCCC2)[C@@H](O)c2ccncc2)cc1 (racemic) [Compound 56, N-(DL-threo-1-Hydroxy-3-oxo-1-(pyridin-4-yl)-3-(pyrrolidin-1-yl)propan-2-yl)-4-methoxy-benzamide hydrochloride] | 67% | 
17 | O=C(N[C@@H](C(=O)N1CCCC1)[C@@H](O)c1ccncc1)c1ccc(Cl)c(Cl)c1 (racemic) [Compound 57, 3,4-Dichloro-N-(DL-threo-1-Hydroxy-3-oxo-1-(pyridin-4-yl)-3-(pyrrolidin-1-yl)propan-2-yl)benzamide] |  | inhibition in vivo at 0.3 mg/kg [2]: 51%
18 | O=C(N[C@@H](C(=O)N1CCCC1)[C@@H](O)c1ccncc1)OCc1ccccc1 (racemic) [Compound 58, Benzyl DL-threo-3-hydroxy-1-oxo-3-(pyridin-4-yl)-1-(pyrrolidin-1-yl)propan-2-ylcarbamate hydrochloride] | 75% | 
19 | CCCCCCCCCC(=O)N[C@@H](C(=O)N1CCCC1)[C@@H](O)c1ccncc1 (racemic) [Compound 59, N-(DL-threo-3-hydroxy-1-oxo-3-(pyridin-4-yl)-1-(pyrrolidin-1-yl)propan-2-yl)decanamide hydrochloride] | 92% | 
20 | CN[C@@H](C(=O)N1CCCC1)[C@@H](O)c1ccncc1 (racemic) [Compound 61, DL-threo-3-Hydroxy-2-(methylamino)-3-(pyridin-4-yl)-1-(pyrrolidin-1-yl)propan-1-one dihydrochloride] | 64% | 
21 | CCCCCCCN[C@@H](C(=O)N1CCCC1)[C@@H](O)c1ccncc1 (racemic) [Compound 64, DL-threo-3-Hydroxy-2-(heptylamino)-3-(pyridin-4-yl)-1-(pyrrolidin-1-yl)propan-1-one dihydrochloride] |  | inhibition in vivo at 0.3 mg/kg [2]: 100%
22 | COc1ccc(CN[C@@H](C(=O)N2CCCC2)[C@@H](O)c2ccncc2)cc1 (racemic) [Compound 67, DL-threo-2-(4-Methoxybenzylamino)-3-hydroxy-3-(pyridin-4-yl)-1-(pyrrolidin-1-yl)propan-1-one one] | 78% | 
23 | O=C([C@H](NCc1ccc(Cl)c(Cl)c1)[C@@H](O)c1ccncc1)N1CCCC1 (racemic) [Compound 68, DL-threo-2-(3,4-Dichlorobenzylamino)-3-hydroxy-3-(pyridin-4-yl)-1-(pyrrolidin-1-yl)propan-1-one dihydrochloride] |  | inhibition in vivo at 0.3 mg/kg (po, 1 h, 300 μg/kg PO, peak at 60 min post dose): 94%
24 | O=C([C@H](NC1CCCCC1)[C@@H](O)c1ccncc1)N1CCCC1 (racemic) [Compound 69] |  | inhibition in vivo at 0.3 mg/kg [2]: 63%
25 | N[C@@H](C(=O)N1CCCC1)[C@@H](O)c1ccc(I)cc1 (racemic) [Compound 210, (±)-threo-2-Amino-3-hydroxy-3-hydroxy-3-(4-iodophenyl)-1-(pyrrolidin-1-yl)propan-1-one dihydrochloride] | 78% | 
26 | N[C@@H](C(=O)N1CCC(F)(F)C1)[C@@H](O)c1ccncc1 (racemic) [Compound 213, (±)-threo-2-Amino-1-(3,3-difluoropyrrolidin-1-yl)-3-hydroxy-3-(pyridin-4-yl)propan-1-one dihydrochloride] |  | inhibition in vivo at 0.3 mg/kg [2]: 85%
27 | O=CN[C@@H](C(=O)N1CCCC1)[C@@H](O)c1ccncc1 (racemic) [Compound 216, N-((±)-threo-1-hydroxy-3-oxo-1-(pyridin-4-yl)-3-(pyrrolidin-1-yl)propan-2-yl)formamide hydrochloride] | 100% | 
